Where a chain is given by its changes, count along the chain named. Entries after “also recorded” stand apart in the source; their conditions may differ.
Legend:
[1] = target: T1, C143S Cav1 (Mus musculus, UniProt P49817, C143S); assay: Biotin-switch assay for Cav1 S-nitrosation in transfected HEK cells, C143S Cav1; format: cell-based; conditions: SNAP 20 μM, 10 min
T1 construct: A full-length mouse Cav1 cDNA clone in pCMV-SPORT6 vector; expressed in transfected cells; host or cells: HEK cells
T1 sequence (P49817 1-178 C143S): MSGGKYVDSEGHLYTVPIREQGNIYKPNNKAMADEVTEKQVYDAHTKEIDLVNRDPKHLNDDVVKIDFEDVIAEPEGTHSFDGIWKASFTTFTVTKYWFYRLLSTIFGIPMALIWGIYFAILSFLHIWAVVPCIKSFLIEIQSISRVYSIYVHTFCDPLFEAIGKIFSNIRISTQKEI
Description: (§1) A full-length mouse Cav1 cDNA clone in pCMV-SPORT6 vector was acquired from Thermo Scientific (MGC mouse Cav1 cDNA, clone ID 4484857). The cysteine-to-serine Cav1 mutants (C133S, C143S and C156S) were generated from this WT mouse Cav1 clone using the QuickChange II Site-Directed Mutagenesis kit (Agilent Technologies) according to the manufacturer's instructions.
(§2) Transfection of HEK cells with designated plasmids was conducted using Lipofectamine 2000 according to manufacturer's protocol.
(§3) S-nitrosated Cav1 was detected in cells (isolated ventricular cardiomyocytes from control and ACES/8 mice or HEK cells transfected with WT Cav1 or Cav1 mutants [C156S, C143S or C133S], with or without NO donor, SNAP [20 μM, 10 min], treatment) using the methods described in Jaffrey et al., Protein S-nitrosylation: a physiological signal for neuronal nitric oxide, Nat Cell Biol. 2001, 3:193-197; and Haendeler et al., Redox regulatory and anti-apoptotic functions of thioredoxin depend on S-nitrosylation at cysteine 69, Nat Cell Biol. 2002, 4:743-749. […]
(§4) After removing acetone, protein pellet was resuspended in HENS buffer. […] Cav1 was then immunoprecipitated from each sample using monoclonal Cav1 antibody (BD Biosciences, San Jose, Calif.), where S-nitrosated Cav1 was detected by HRP-conjugated streptavidin following gel electrophoresis and Western blotting. […]

[2] = target: T2, C156S Cav1 (Mus musculus, UniProt P49817, C156S); assay: Biotin-switch assay for Cav1 S-nitrosation in transfected HEK cells, C156S Cav1; format: cell-based; conditions: SNAP 20 μM, 10 min
T2 construct: A full-length mouse Cav1 cDNA clone in pCMV-SPORT6 vector; expressed in transfected cells; host or cells: HEK cells
T2 sequence (P49817 1-178 C156S): T1 sequence (P49817 1-178 C143S) with S143C, C156S
Description: as §1, §2, §3, §4

[3] = target: T3, C133S Cav1 (Mus musculus, UniProt P49817, C133S); assay: Biotin-switch assay for Cav1 S-nitrosation in transfected HEK cells, C133S Cav1; format: cell-based; conditions: SNAP 20 μM, 10 min
T3 construct: A full-length mouse Cav1 cDNA clone in pCMV-SPORT6 vector; expressed in transfected cells; host or cells: HEK cells
T3 sequence (P49817 1-178 C133S): T1 sequence (P49817 1-178 C143S) with C133S, S143C
Description: as §1, §2, §3, §4

[4] = system: Cav1-cSrc binding; assay: Co-immunoprecipitation in HEK cells co-transfected with mouse cSrc and Cav1; format: cell-based; conditions: 10 min
Description: (§5) Immunoprecipitation (IP) of Cav1 was conducted using a magnetic IP kit from Thermo Scientific (Waltham, Mass.). Protein lysates from total LV or isolated LV myocytes (with 1000 μg total protein) from control and ACES/8 mice were incubated with 10 μg of mouse anti-Cav1 monoclonal antibodies overnight at 4° C.
(§6) The immune complex was bound to protein A/G magnetic beads and collected with a magnetic stand. Proteins co-immunoprecipitated with Cav1 were eluted and subjected to gel electrophoresis and Western blotting using the antibodies described above where appropriate. The amount of proteins co-immunoprecipitated with Cav1 was normalized to total Cav1 co-immunoprecipitated in each sample. Similar methods were used to analyze the proteins that co-immunoprecipitated with Cav3 and cSrc using antibodies against Cav3 (mouse monoclonal, BD Biosciences, San Jose, Calif.) or cSrc (rabbit monoclonal, Cell Signaling Technology, Danvers, Mass.).
as §2
To test if increased Cav1 SNO could result in Cav1-cSrc dissociation, human embryonic kidney (HEK) cells transfected with mouse Cav1 and cSrc were treated with 20 μM nitric oxide (NO) donor S-nitroso-N-acetyl-DL-penicillamine (SNAP) or vehicle for 10 min.

[5] = target: T4, WT mouse Cav1 (Mus musculus, UniProt P49817); assay: Biotin-switch assay for Cav1 S-nitrosation in transfected HEK cells, WT Cav1; format: cell-based; conditions: SNAP 20 μM, 10 min
T4 construct: A full-length mouse Cav1 cDNA clone in pCMV-SPORT6 vector; host or cells: HEK cells
T4 sequence (P49817 1-178): T1 sequence (P49817 1-178 C143S) with S143C
Description: as §2
S-nitrosated Cav1 was detected in cells (isolated ventricular cardiomyocytes from control and ACES/8 mice or HEK cells transfected with WT Cav1 or Cav1 mutants [C156S, C143S or C133S], with or without NO donor, SNAP [20 μM, 10 min], treatment) using the methods described in Jaffrey et al., Protein S-nitrosylation: a physiological signal for neuronal nitric oxide, Nat Cell Biol. 2001, 3:193-197; and Haendeler et al., Redox regulatory and anti-apoptotic functions of thioredoxin depend on S-nitrosylation at cysteine 69, Nat Cell Biol. 2002, 4:743-749.
Cells were lysed with HENS buffer (25 mM HEPES, pH 7.7, 0.1 mM EDTA, 0.01 mM neocuproine and 1% SDS) and centrifuged at 20,000 g for 15 min. The total cell protein was incubated in 20 mM methylmethanthiosulphate (MMTS) for 20 min at 50° C. and vortexed for 5 s every 2 min. Cellular protein was precipitated with acetone.
After removing acetone, protein pellet was resuspended in HENS buffer. […] Cav1 was then immunoprecipitated from each sample using monoclonal Cav1 antibody (BD Biosciences, San Jose, Calif.), where S-nitrosated Cav1 was detected by HRP-conjugated streptavidin following gel electrophoresis and Western blotting. The amount of S-nitrosated Cav1 was quantified and normalized to total Cav1 in each sample

[6] = system: Cx43; assay: Western blot of LV protein lysates, Cx43; format: in vivo, mouse
Description: (§7) For Western blots, total protein lysates were prepared from the LV of 6 week-old WT control, ACE8/8 with and without 2 week treatment of mitochondria-targeted antioxidant (2-(2,2,6,6-Tetra-methylpiperidin-1-oxyl-4-ylamino)-2-oxoethyl)-triphenylphosphonium chloride (MitoTEMPO, see below), as well as from adult (2-4 month) Cav1−/− mice with and without 4 weeks treatment of cSrc inhibitor 1-(1,1-dimethylethyl)-[…]-1H-pyrazolo[3,4-d]pyrimidin-4-amine (PP1, see below).
(§8) In some cases, protein lysates were prepared from the LV cardiomyocytes isolated from ACE8/8 animals using described methods. 13 Total protein lysates were fractionated on 8-15% SDS-PAGE and transferred to PVDF membranes, incubated in 5% skim milk in PBS containing 0.1% Tween 20 (blocking buffer) for 1 h at room temperature, followed by overnight incubation at 4° C. with primary antibodies (rabbit monoclonal anti-cSrc, p-cSrc at Tyr416, Cx43, C-terminal Src kinase [CSK] and Tyr14 p-Cav1 antibodies from Cell Signaling, mouse monoclonal anti-Cav1 and Cav3 antibodies from BD Biosciences, rabbit monoclonal anti-eNOS, p-eNOS and nNOS antibodies from Santa Cruz).
(§9) For a loading control, the membranes were blotted with primary antibodies against glyceraldehydes-3-phosphate dehydrogenase (GAPDH) (Santa Cruz Biotech, Santa Cruz, Calif.). After washing, the membranes were incubated for 1 h at room temperature with alkaline phosphatase-conjugated secondary antibody diluted in blocking buffer, and bound antibodies were detected using a chemiluminescent alkaline phosphate substrate. Protein band intensities were quantified by densitometry (Quantity One Basic, Bio-Rad Laboratory, Hercules, Calif.) and the band densities of each protein in individual samples were normalized to that of GAPDH in the same sample.

[7] = system: p-cSrc at Tyr416; assay: Western blot of LV protein lysates, p-cSrc; format: in vivo, mouse
Description: as §7, §8, §9

[8] = system: Cav1-cSrc binding; assay: Co-immunoprecipitation with Cav1 in ACE8/8 LV, cSrc; format: in vivo, mouse; conditions: ACE8/8 mice, MitoTEMPO 0.7 mg/kg/day i.p. for 2 weeks, n=6
Description: as §5, §6

[9] = system: ACE8/8 mice; conditions: cited from earlier work
[10] = system: Cav1-eNOS interaction; assay: Co-immunoprecipitation with Cav1 in ACE8/8 LV, eNOS; format: in vivo, mouse; conditions: ACE8/8 mice, MitoTEMPO 0.7 mg/kg/day i.p. for 2 weeks, n=6
Description: as §5, §6

[11] = system: Cav1−/− mice; assay: LV epicardial conduction velocity measurement (72-electrode Flex-MEA); format: in vivo, mouse
Description: LV conduction velocity was measured in anesthetized WT (n=6) and Cav1−/− (with and without 4 week PP1 treatment, n=6 in each group) mice using a flexible multielectrode array (Flex-MEA, 72 electrodes) system (Multichannel systems, Reutlingen, Germany) according to manufacturer's instructions.
Mid-anterior LV epicardial electrical propagation was recorded under right-ventricular pacing (750 bpm); the color mapping of LV conduction propagation, as well as the calculation of LV conduction velocity, were carried out using Cardio 2D software (Multichannel systems, Reutlingen, Germany)

[12] = system: Cav1−/− mice; assay: Programmed ventricular stimulation, ventricular arrhythmia inducibility; format: in vivo, mouse; conditions: 4 weeks of PP1, n=6, untreated Cav1−/− 75% inducible
Description: Surface electrocardiograms (ECG) were recorded and ventricular arrhythmia inducibility was determined in WT and Cav1^−/− with and without 4 weeks of PP1 treatment (n=4-6 in each group) using described methods under general anesthesia with isofurane as described in Berul et al., In vivo cardiac electrophysiology studies in the mouse, Circulation 1996, 94:2641-2648.
Surface electrocardiograms (ECG) were monitored and recorded with needle electrodes connected to a dual bioamplifier (PowerLab 26T, AD Instruments, Dunedin, New Zealand) as described in Yang et al., Exercise training and PI3Kα-induced electrical remodeling is independent of cellular hypertrophy and Akt signaling, J Mol Cell Cardiol. 2012, 53:532-541.
Programmed ventricular stimulation was performed with a RV epicardial electrode connected to STG1008 stimulator (Multichannel systems, Reutlingen, Germany), where eight consecutive beats were paced at 60 ms basic cycle length, followed by triple extrastimuli with incrementally deceasing cycle lengths between 20-55 ms, and inducible ventricular tachycardia was defined as >3 consecutive ventricular beats. See, Bevilacqua et al., A targeted disruption in connexin40 leads to distinct atrioventricular conduction defects, J Interv Card Electrophysiol. 2000, 4:459-467.

[13] = ACE8/8 mice, MitoTEMPO 0.7 mg/kg/day i.p. for 2 weeks
[14] = ACE8/8 mice, MitoTEMPO 0.7 mg/kg/day i.p. for 2 weeks, n=6
[15] = Cav1−/− mice, PP1 1.5 mg/kg/dose i.p. 3 times per week for 4 weeks, n=6, 1.5 mg/kg

## CC(=O)NC(C(=O)O)C(C)(C)SN=O (racemic) [SNAP, S-nitroso-N-acetyl-DL-penicillamine]
[1]
  Cav1 SNO (S-nitrosation), C143S Cav1: significantly increased
[2]
  Cav1 SNO (S-nitrosation), C156S Cav1: not
[3]
  Cav1 SNO (S-nitrosation), C133S Cav1: significantly increased
[4]; HEK cells co-transfected with mouse cSrc and Cav1, SNAP 20 μM, n=4
  interaction between cSrc and Cav1 (in words): reduced
[4]; HEK cells transfected with mouse Cav1 and cSrc, SNAP 20 μM
  decrease of Cav1-cSrc binding compared to control: 58%
[5]
  Cav1 SNO (S-nitrosation), WT Cav1: significantly increased

## CC1(C)CC(NC(=O)C[P+](c2ccccc2)(c2ccccc2)c2ccccc2)CC(C)(C)N1[O] [MitoTEMPO, (2-(2,2,6,6-Tetra-methylpiperidin-1-oxyl-4-ylamino)-2-oxoethyl)-triphenylphosphonium chloride]
[6]; [13]
  increase of Cx43 expression compared to untreated ACE8/8 animals: 1.9 fold
[6]; [14]
  Cx43 downregulation in ACE8/8 LV (in words): significantly attenuated
[7]; [13]
  reduction of cardiac cSrc phosphorylation compared to untreated ACE8/8 animals: 63%
[7]; [14]
  cSrc activation/phosphorylation in ACE8/8 LV (in words): significantly attenuated
[8]
  Cav1-cSrc binding in ACE8/8 LV (in words): reversed; also recorded: restored
[9]; MitoTEMPO 0.7 mg/kg/day i.p. for 2 weeks, to levels similar to WT controls
  elevated mitoROS in ACE8/8 hearts: normalizes
[9]; from Sovari et al. 2013
  Cx43 expression in ACE8/8 mice: restores
  gap junction conduction in ACE8/8 mice: normalizes
  ventricular arrhythmias and sudden cardiac death in ACE8/8 mice: ameliorates
[10]
  Cav1-eNOS interaction in ACE8/8 LV (in words): reversed; also recorded: significantly reduced

## Cc1ccc(-c2nn(C(C)(C)C)c3ncnc(N)c23)cc1 [PP1, 1-(1,1-dimethylethyl)-1-(4-methylphenyl)-1H-pyrazolo[3,4-d]pyrimidin-4-amine]
[6]; [15]
  LV Cx43 expression / Cx43 downregulation (in words): normalized; also recorded: prevented
[11]; 4 weeks of PP1 treatment
  LV conduction velocity in Cav1−/− LV (in words): normalized
[11]; PP1 1.5 mg/kg/dose i.p. 3 times per week for 4 weeks, n=6, untreated Cav1−/− 0.35±0.03, WT 0.50±0.09
  LV conduction velocity: 0.43±0.01 mm/ms
[7]; [15]
  LV p-cSrc expression / cSrc phosphorylation (in words): normalized; also recorded: prevented
[12]
  inducible for ventricular arrhythmias / VT with programmed stimulation: 0%

Source: patent publication US20160271153A1, “Novel Methods For The Treatment Of Cardiac Arrhythmias” (United States Government as Represented by The Department …, priority 2013, published 2016)
